US10968193B2, “Antidiabetic bicyclic compounds” (Merck Sharp & Dohme Corp., priority 2014, dated 2021)

Molecular target: T1, human GPR40 (Homo sapiens, UniProt O14842)
T1 construct: expressed in transfected cells; host or cells: HEK cells stably expressing the aequorin reporter
Assay: Inositol Phosphate Turnover (IP1) Assay 3
Type: cell-based
Conditions: HEK cells stably expressing human GPR40
Procedure, shortened: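 HEK cells stably expressing human GPR40, plated 16 h before, were treated with compound for 60 min at 37 °C in stimulation buffer. IP1 measured by HTRF (665/620 nm ratio) against an IP1 standard curve; activity normalized to a reference compound, EC50 from 4-parameter fit.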

T1 sequence (O14842 whole entry): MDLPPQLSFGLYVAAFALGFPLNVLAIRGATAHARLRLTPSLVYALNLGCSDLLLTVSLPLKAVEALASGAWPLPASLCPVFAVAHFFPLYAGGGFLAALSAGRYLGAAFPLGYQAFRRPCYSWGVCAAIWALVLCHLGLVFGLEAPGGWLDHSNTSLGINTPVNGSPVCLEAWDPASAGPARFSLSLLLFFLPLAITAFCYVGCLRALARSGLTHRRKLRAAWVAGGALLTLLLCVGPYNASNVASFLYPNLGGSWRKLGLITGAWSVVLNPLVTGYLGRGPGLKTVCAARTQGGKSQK

In order of falling EC50:
1. COc1cc(-c2ccc(C3CCc4ccc([C@H](C5CC5)[C@H](C)C(=O)O)cc4O3)cc2C(CN2CCCC2)OC)ccn1 (single isomer, unassigned) [Example 177, (2S, 3R)-3-cyclopropyl-3-((R or S)-2-(3-((R or S)-1-methoxy-2-(pyrrolidin-1-yl)ethyl)-4-(2-methoxypyridin-4-yl)phenylchroman-7-yl)-2-methylpropanoic acid]  231 nM
2. COc1cc(-c2ccc(C3CCc4ccc([C@H](C5CC5)[C@H](C)C(=O)O)cc4O3)cc2C(CN2CCCC2)OC)ccn1 (single isomer, unassigned) [Example 178]  136 nM
3. CCOc1cc(-c2ccc(C3CCc4ccc([C@H](C5CC5)[C@H](C)C(=O)O)cc4O3)c(CN(C)C(C)(C)C)c2)c(F)cn1 (single isomer, unassigned) [Example 132b]  106 nM
4. CCOc1cc(-c2ccc(C3CCc4ccc([C@H](C5CC5)[C@H](C)C(=O)O)cc4O3)cc2CN2CCCC2)c(F)cn1 (single isomer, unassigned) [Example 173]  50 nM
5. COc1cc(-c2ccc(C3CCc4ccc([C@H](C5CC5)[C@H](C)C(=O)O)cc4O3)c(CN3CCC[C@@H]3C)c2)c(F)cn1 (single isomer, unassigned) [Example 129b]  36 nM
6. CCOc1cc(-c2ccc(C3CCc4ccc([C@H](C5CC5)[C@H](C)C(=O)O)cc4O3)cc2CN2CCCC2)c(F)cn1 (single isomer, unassigned) [Example 174]  27 nM
7. CCN(Cc1cc(-c2cc(OC)ncc2F)ccc1C1CCc2ccc([C@H](C3CC3)[C@H](C)C(=O)O)cc2O1)C(C)C (single isomer, unassigned) [Example 124b]  16 nM
8. CCN(CC)Cc1cc(C2CCc3ccc([C@H](C4CC4)[C@H](C)C(=O)O)cc3O2)c(F)cc1-c1ccnc(OC)c1 (single isomer, unassigned) [Example 182]  16 nM
9. CCN(CC)Cc1cc(C2CCc3ccc([C@H](C4CC4)[C@H](C)C(=O)O)cc3O2)c(F)cc1-c1ccnc(OC)c1 (single isomer, unassigned) [Example 181]  14 nM
10. COc1cc(-c2ccc(C3CCc4ccc([C@H](C5CC5)[C@H](C)C(=O)O)cc4O3)c(CN(C)C(C)(C)C)c2)c(F)cn1 (single isomer, unassigned) [Example 125b]  12 nM
11. CCN(C)Cc1cc(C2CCc3ccc([C@H](C4CC4)[C@H](C)C(=O)O)cc3O2)ccc1-c1cc(OC)ncc1C#N (single isomer, unassigned) [Example 195]  12 nM
12. COc1cc(-c2ccc(C3CCc4ccc([C@H](C5CC5)[C@H](C)C(=O)O)cc4O3)c(CN3CCCC[C@H]3C)c2)c(F)cn1 (single isomer, unassigned) [Example 130a]  8.7 nM
13. CCN(Cc1cc(C2CCc3ccc([C@H](C4CC4)[C@H](C)C(=O)O)cc3O2)c(F)cc1-c1ccnc(OC)c1)C(C)C (single isomer, unassigned) [Example 186]  7.9 nM
14. CCN(C)Cc1cc(C2CCc3ccc([C@H](C4CC4)[C@H](C)C(=O)O)cc3O2)ccc1-c1cc(OC)ncc1C#N (single isomer, unassigned) [Example 196]  7.2 nM
15. COc1cc(-c2ccc(C3CCc4ccc([C@H](C5CC5)[C@H](C)C(=O)O)c(F)c4O3)cc2CN2CCCC2)c(F)cn1 (single isomer, unassigned) [Example 199]  5.7 nM
16. COc1ccc(F)c(-c2ccc(C3CCc4ccc([C@H](C5CC5)[C@H](C)C(=O)O)cc4O3)cc2CN2CCCCC23CC3)n1 (single isomer, unassigned) [Example 189]  5.1 nM
17. COc1cc(-c2ccc(C3CCc4ccc([C@H](C5CC5)[C@H](C)C(=O)O)c(F)c4O3)cc2CN2CCCC2)c(F)cn1 (single isomer, unassigned) [Example 198]  4.7 nM
18. CCN(Cc1cc(C2CCc3ccc([C@H](C4CC4)[C@H](C)C(=O)O)cc3O2)c(F)cc1-c1ccnc(OC)c1)C(C)C (single isomer, unassigned) [Example 185]  4.4 nM
19. COc1cc(-c2ccc(C3CCc4ccc([C@H](C5CC5)[C@H](C)C(=O)O)c(F)c4O3)cc2CN2CCCCC2)c(F)cn1 (single isomer, unassigned) [Example 201]  4.4 nM
20. COc1cc(-c2ccc(C3CCc4ccc([C@H](C5CC5)[C@H](C)C(=O)O)cc4O3)c(CN(C(C)C)C(C)C)c2)c(F)cn1 (single isomer, unassigned) [Example 126b]  2.7 nM
21. CCOc1cc(-c2ccc(C3CCc4ccc([C@H](C5CC5)[C@H](C)C(=O)O)cc4O3)cc2CN(CC)CC)c(F)cn1 (single isomer, unassigned) [Example 171, (2S, 3R)-3-cyclopropyl-3-((R or S)-2-(3-((diethylamino)methyl)-4-(2-ethoxy-5-fluoropyridin-4-yl)phenyl)chroman-7-yl)-2-methylpropanoic acid]  2.5 nM
22. CCN(CC)Cc1cc(C2CCc3ccc([C@H](C4CC4)[C@H](C)C(=O)O)c(F)c3O2)ccc1-c1cc(OC)ncc1F (single isomer, unassigned) [Example 205]  2.4 nM
23. CCOc1cc(-c2ccc(C3CCc4ccc([C@H](C5CC5)[C@H](C)C(=O)O)cc4O3)cc2CN(CC)CC)c(F)cn1 (single isomer, unassigned) [Example 172, (2S, 3R)-3-cyclopropyl-3-((S or R)-2-(3-((diethylamino)methyl)-4-(2-ethoxy-5-fluoropyridin-4-yl)phenyl)chroman-7-yl)-2-methylpropanoic acid]  2.3 nM
24. CCN(CC)Cc1cc(C2CCc3ccc([C@H](C4CC4)[C@H](C)C(=O)O)c(F)c3O2)ccc1-c1cc(OC)ncc1F (single isomer, unassigned) [Example 204]  2.1 nM
25. CCOc1cc(-c2ccc(C3CCc4ccc([C@H](C5CC5)[C@H](C)C(=O)O)cc4O3)c(CN(C)C(C)(C)C)c2)c(F)cn1 (single isomer, unassigned) [Example 132a]  1.8 nM
26. COc1cc(-c2ccc(C3CCc4ccc([C@H](C5CC5)[C@H](C)C(=O)O)cc4O3)cc2CN(C)C(C)(C)C)c(C#N)cn1 (single isomer, unassigned) [Example 193]  1.5 nM
27. COc1cc(-c2ccc(C3CCc4ccc([C@H](C5CC5)[C@H](C)C(=O)O)c(F)c4O3)cc2CN2CCCCC2)c(F)cn1 (single isomer, unassigned) [Example 200]  1.5 nM
28. COc1cc(-c2ccc(C3CCc4ccc([C@H](C5CC5)[C@H](C)C(=O)O)c(F)c4O3)cc2CN2CCCC2(C)C)c(F)cn1 (single isomer, unassigned) [Example 206]  1.3 nM
29. COc1cc(-c2ccc(C3CCc4ccc([C@H](C5CC5)[C@H](C)C(=O)O)c(F)c4O3)cc2CN2CCCC2(C)C)c(F)cn1 (single isomer, unassigned) [Example 207]  1.3 nM
30. COc1cc(-c2ccc(C3CCc4ccc([C@H](C5CC5)[C@H](C)C(=O)O)cc4O3)c(CN3CCCCC3(C)C)c2)c(F)cn1 (single isomer, unassigned) [Example 128b]  1.2 nM
31. COc1cc(-c2ccc(C3CCc4ccc([C@H](C5CC5)[C@H](C)C(=O)O)cc4O3)cc2CN(C)C(C)(C)C)c(C#N)cn1 (single isomer, unassigned) [Example 194]  1.1 nM
32. CCOc1cc(-c2ccc(C3CCc4ccc([C@H](C5CC5)[C@H](C)C(=O)O)cc4O3)c(CN3CCC[C@@H]3C)c2)c(F)cn1 (single isomer, unassigned) [Example 133]  0.8 nM
33. COc1cc(-c2cc(F)c(C3CCc4ccc([C@H](C5CC5)[C@H](C)C(=O)O)cc4O3)cc2CN(C(C)C)C(C)C)ccn1 (single isomer, unassigned) [Example 184]  0.73 nM
34. COc1cc(-c2cc(F)c(C3CCc4ccc([C@H](C5CC5)[C@H](C)C(=O)O)cc4O3)cc2CN2CCCCC23CC3)ccn1 (single isomer, unassigned) [Example 188]  0.7 nM
35. COc1cc(-c2cc(F)c(C3CCc4ccc([C@H](C5CC5)[C@H](C)C(=O)O)cc4O3)cc2CN2CCCCC23CC3)ccn1 (single isomer, unassigned) [Example 187]  0.4 nM
36. COc1cc(-c2cc(F)c(C3CCc4ccc([C@H](C5CC5)[C@H](C)C(=O)O)cc4O3)cc2CN(C(C)C)C(C)C)ccn1 (single isomer, unassigned) [Example 183]  0.35 nM
37. COc1cc(-c2ccc(C3CCc4ccc([C@H](C5CC5)[C@H](C)C(=O)O)cc4O3)c(CN(C)C(C)(C)C)c2)c(F)cn1 (single isomer, unassigned) [Example 125a]  0.3 nM
38. COc1cc(-c2ccc(C3CCc4ccc([C@H](C5CC5)[C@H](C)C(=O)O)cc4O3)cc2CN2CC3CC3C2)c(C#N)cn1 (single isomer, unassigned) [Example 192]  0.3 nM
39. COc1cc(-c2ccc(C3CCc4ccc([C@H](C5CC5)[C@H](C)C(=O)O)cc4O3)c(CN3CCC[C@@H]3C)c2)c(F)cn1 (single isomer, unassigned) [Example 129a]  0.25 nM
40. COc1cc(-c2ccc(C3CCc4ccc([C@H](C5CC5)[C@H](C)C(=O)O)c(F)c4O3)cc2CN2CCCCC23CC3)c(F)cn1 (single isomer, unassigned) [Example 202]  0.16 nM
41. COc1cc(-c2ccc(C3CCc4ccc([C@H](C5CC5)[C@H](C)C(=O)O)c(F)c4O3)cc2CN2CCCCC23CC3)c(F)cn1 (single isomer, unassigned) [Example 203]  0.16 nM
42. COc1cc(-c2ccc(C3CCc4ccc([C@H](C5CC5)[C@H](C)C(=O)O)cc4O3)c(CN3CCCCC3(C)C)c2)c(F)cn1 (single isomer, unassigned) [Example 128a]  0.07 nM
43. COc1cc(-c2ccc(C3CCc4ccc([C@H](C5CC5)[C@H](C)C(=O)O)cc4O3)c(CN3CCCC[C@H]3C)c2)c(F)cn1 (single isomer, unassigned) [Example 130b]  0.06 nM
44. COc1cc(-c2ccc(C3CCc4ccc([C@H](C5CC5)[C@H](C)C(=O)O)cc4O3)c(CN(C(C)C)C(C)C)c2)c(F)cn1 (single isomer, unassigned) [Example 126a]  0.05 nM
